# Test results from patent US5962472A, “Use of 4-phenyl-3,6-dihydro-2H-pyridyl derivatives” (Hoffmann-La Roche Inc., priority 1996, dated 1999).
# Structures can show the parent of a compound that is named as a salt. Where two headings read alike, the source gives them in different places.
# Key:
# NMDAR1C--NMDAR2B = biological target: T1, NMDAR1C--NMDAR2B (Rattus norvegicus, UniProt P35439+Q00960); assay: Electrophysiology on recombinant NMDA receptors NMDAR1C-NMDAR2B expressed in Xenopus oocytes; assay type: cell-based; conditions: -80 mV, 15 μM Asp plus 0.2 μM Gly, read-out: Electrophysiology IC50 NMDAR 1C u. 2B
# T1 construct: expressed in transfected cells; host or cells: Xenopus laevis oocytes, mRNA injected 1:1
# Excerpt: (§1) Electrophysiology on recombinant NMDA receptors
# (§2) cDNA clones coding for the subunits NMDAR1C and NMDAR2A of the NMDA receptor (see Hollmann and Heinemann, 1994, Annu. Rev. Neurosci. 17:31 for nomenclature of NMDA receptor subunits) were isolated from a rat brain λgt11 cDNA library as published elsewhere (Sigel et al., 1994, J. Biol. Chem. 269:8204). The clone for the subunit NMDAR2B of the rat brain NMDA receptor was obtained from S. Nakanishi (Kyoto, Japan). The cDNAs were transcribed, capped and poly(A^+)-tailed as described previously (Malherbe et al., 1990, Mol. Brain Res. 8: 199). Oocytes of South African frogs (Xenopus laevis) were used for expressing either a combination of the NMDAR1C and NMDAR2A subunits or the NMDAR1C and NMDAR2B subunits. Approximately 3 fmol of a 1:1 mixture of the respective mRNA species were injected into every oocyte. Four to five days later the ion current through the NMDA receptor channels was measured in voltage clamp experiments (see Methfessel et al., 1986, Pfliigers Arch. 407:577 for the methods of oocyte expression and voltage-clamping). The membrane potential was clamped to -80 mV and the receptors were activated by applying a modified Ringer's solution containing the NMDA-receptor agonists L-asparatate (Asp) and glycine (Gly). Different agonist concentrations were chosen for either subunit combination to account for the different agonist sensitivities of the two types of receptors (70 μM Asp plus 2.5 μM Gly for NMDARlC--NMDAR2A and 15 μM Asp plus 0.2 μM Gly for NMDAR1C--NMDAR2B). The agonists were applied for 15 s intervals once every 2.5 min by rapid superfusion of the oocyte with agonist containing solution and the amplitude of the agonist-evoked current was measured immediately before the end of each application. After a series of initial control applications, increasing concentrations of the antagonist to be tested were added to both, the basal Ringer's and the agonist containing solution. […] Figures for the IC50 in all other cases are arithmetic mean values of individual IC50 s determined by the logistic curve fits.
# NMDAR1C--NMDAR2A = biological target: T2, NMDAR1C--NMDAR2A (Rattus norvegicus, UniProt P35439+Q00959); assay: Electrophysiology on recombinant NMDA receptors NMDAR1C-NMDAR2A expressed in Xenopus oocytes; assay type: cell-based; conditions: -80 mV, 70 μM Asp plus 2.5 μM Gly, > = highest tested concentration (solubility limit), read-out: Electrophysiology IC50 NMDAR 1C u. 2A
# T2 construct: expressed in transfected cells; host or cells: Xenopus laevis oocytes, mRNA injected 1:1
# Excerpt: as §1, §2
# [1] = biological target: NMDA receptor (3H-MK801 binding, high and low affinity binding sites); assay: 3H-MK801 (Dizocilpine) binding in vitro, rat whole brain membranes; conditions: 5 nM 3H-MK-801, 2 hours, room temperature
# Procedure: 3H-MK801 (Dizocilpine) binding in vitro
# The whole brain from 150-200 g male rats, without cerebellum and without medulla oblongata was dissected on ice. The tissue was then homogenized with an Ultra-Turrax maximum speed during 30 seconds at 4° C. in 50 volumes of cold Tris HCl 50 mM, EDTA disodium 10 mM, pH=7.4 buffer (wet weight/v). The homogenate was centrifuged at 48'000 x g (20'000 rpm, SS34, Sorvall RC5C) for 10 minutes. The pellet was rehomogenized with the same volume of buffer and the homogenate incubated at 37° C. for 10 minutes. After centrifugation as above, the pellet was rehomogenized with the same volume of buffer and frozen at -80° C. in 35 ml fractions for at least 16 hours and not more than 2 weeks.
# For the binding experiment, the homogenate was centrifuged as above and the pellet was washed 3 times by homogenization in 25 volumes of cold Tris HCl 5mM, pH=7.4 buffer (Ultra-Turrax, maximum speed, 30 seconds) and centrifugation as above. The final pellet was rehomogenized in 25 volumes of buffer (original wet weight) and used as such in the assay. The final concentration of membrane in the assay was 20 mg/ml (wet weight).
# The incubation was performed in the presence of 1 nM glutamate, glycine and spermidine. MK-801, (+)-[3-3H(N)], NEN (NET-972) 20Ci/mmol, was used at 5 nM final concentration. Non specific binding was determined in presence of 10ONM 1-[1-(2-Thienyl)cyclohexyl]piperidine (TCP). After 2 hours of incubation at room temperature, the suspension was filtered (Whatmann GF/B, soaked in 0.1% polyethylenimine for 2 hours) and washed 5 times with 3 ml of cold Tris HCl 5mM, pH=7.4 buffer. The air-dried filters were counted with 10 ml of Ultima-gold (Packard) in a Tri-Carb 2500 TR scintillation counter after agitation.
# The radioactive decays per minute (DPM) were transformed in % of specific binding and these values were treated by a non linear regression calculation program (BINDING, H. Affolter, Switzerland) which provided the IC50 values for the low and high affinity binding sites (=concentrations producing half maximal inhibition at the respective sites). Each experiment was repeated at least three times and the final IC50 values were calculated as the mean +/-standard deviation of the individual experiments.
# Reference: R. W. Ransom and N. L. Stec. Journal of Neurochemistry 51, 830-836, 1988.
# [2] = high affinity binding site, read-out: 3H-MK801 IC50 high
# [3] = low affinity binding site, read-out: 3H-MK801 IC50 low
# T1 sequence (Q00960 27-1482, other chains not shown): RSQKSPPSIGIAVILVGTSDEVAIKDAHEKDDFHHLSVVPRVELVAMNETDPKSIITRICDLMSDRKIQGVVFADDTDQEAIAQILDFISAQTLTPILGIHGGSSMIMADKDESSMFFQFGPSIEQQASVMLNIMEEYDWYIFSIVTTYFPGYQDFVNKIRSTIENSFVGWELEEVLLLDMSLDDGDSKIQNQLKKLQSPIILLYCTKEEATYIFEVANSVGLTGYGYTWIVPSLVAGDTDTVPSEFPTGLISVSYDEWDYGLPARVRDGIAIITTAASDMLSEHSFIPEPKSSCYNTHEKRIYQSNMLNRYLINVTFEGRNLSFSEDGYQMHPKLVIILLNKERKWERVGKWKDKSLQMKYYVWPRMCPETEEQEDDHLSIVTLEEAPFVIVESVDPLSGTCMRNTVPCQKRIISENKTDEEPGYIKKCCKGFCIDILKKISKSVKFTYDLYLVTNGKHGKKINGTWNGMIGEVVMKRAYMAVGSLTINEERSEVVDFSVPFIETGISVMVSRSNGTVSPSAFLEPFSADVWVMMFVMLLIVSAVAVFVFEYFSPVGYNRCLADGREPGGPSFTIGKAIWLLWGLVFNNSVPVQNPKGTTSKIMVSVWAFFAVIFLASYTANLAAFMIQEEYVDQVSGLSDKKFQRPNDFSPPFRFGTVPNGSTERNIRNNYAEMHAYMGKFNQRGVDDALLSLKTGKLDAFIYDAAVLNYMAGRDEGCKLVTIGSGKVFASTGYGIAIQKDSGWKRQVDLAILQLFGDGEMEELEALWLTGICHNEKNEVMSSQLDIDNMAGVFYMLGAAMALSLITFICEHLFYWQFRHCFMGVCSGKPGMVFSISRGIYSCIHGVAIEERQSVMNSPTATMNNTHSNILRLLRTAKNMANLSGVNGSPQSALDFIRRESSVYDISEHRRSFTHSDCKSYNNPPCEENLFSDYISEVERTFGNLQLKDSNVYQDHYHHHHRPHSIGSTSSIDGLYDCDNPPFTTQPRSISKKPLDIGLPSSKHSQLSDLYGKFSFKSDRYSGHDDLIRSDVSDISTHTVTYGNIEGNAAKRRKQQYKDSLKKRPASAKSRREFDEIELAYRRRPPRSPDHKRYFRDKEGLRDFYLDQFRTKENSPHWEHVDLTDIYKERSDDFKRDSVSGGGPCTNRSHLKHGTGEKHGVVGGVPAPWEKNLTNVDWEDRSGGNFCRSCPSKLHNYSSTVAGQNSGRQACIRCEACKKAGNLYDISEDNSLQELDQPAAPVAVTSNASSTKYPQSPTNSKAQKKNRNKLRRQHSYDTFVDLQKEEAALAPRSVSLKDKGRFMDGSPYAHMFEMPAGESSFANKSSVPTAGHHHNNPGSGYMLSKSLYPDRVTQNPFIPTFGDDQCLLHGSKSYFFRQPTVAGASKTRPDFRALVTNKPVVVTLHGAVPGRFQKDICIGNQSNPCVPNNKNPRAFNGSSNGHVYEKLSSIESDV
# T2 sequence (Q00959 23-1464, other chains not shown): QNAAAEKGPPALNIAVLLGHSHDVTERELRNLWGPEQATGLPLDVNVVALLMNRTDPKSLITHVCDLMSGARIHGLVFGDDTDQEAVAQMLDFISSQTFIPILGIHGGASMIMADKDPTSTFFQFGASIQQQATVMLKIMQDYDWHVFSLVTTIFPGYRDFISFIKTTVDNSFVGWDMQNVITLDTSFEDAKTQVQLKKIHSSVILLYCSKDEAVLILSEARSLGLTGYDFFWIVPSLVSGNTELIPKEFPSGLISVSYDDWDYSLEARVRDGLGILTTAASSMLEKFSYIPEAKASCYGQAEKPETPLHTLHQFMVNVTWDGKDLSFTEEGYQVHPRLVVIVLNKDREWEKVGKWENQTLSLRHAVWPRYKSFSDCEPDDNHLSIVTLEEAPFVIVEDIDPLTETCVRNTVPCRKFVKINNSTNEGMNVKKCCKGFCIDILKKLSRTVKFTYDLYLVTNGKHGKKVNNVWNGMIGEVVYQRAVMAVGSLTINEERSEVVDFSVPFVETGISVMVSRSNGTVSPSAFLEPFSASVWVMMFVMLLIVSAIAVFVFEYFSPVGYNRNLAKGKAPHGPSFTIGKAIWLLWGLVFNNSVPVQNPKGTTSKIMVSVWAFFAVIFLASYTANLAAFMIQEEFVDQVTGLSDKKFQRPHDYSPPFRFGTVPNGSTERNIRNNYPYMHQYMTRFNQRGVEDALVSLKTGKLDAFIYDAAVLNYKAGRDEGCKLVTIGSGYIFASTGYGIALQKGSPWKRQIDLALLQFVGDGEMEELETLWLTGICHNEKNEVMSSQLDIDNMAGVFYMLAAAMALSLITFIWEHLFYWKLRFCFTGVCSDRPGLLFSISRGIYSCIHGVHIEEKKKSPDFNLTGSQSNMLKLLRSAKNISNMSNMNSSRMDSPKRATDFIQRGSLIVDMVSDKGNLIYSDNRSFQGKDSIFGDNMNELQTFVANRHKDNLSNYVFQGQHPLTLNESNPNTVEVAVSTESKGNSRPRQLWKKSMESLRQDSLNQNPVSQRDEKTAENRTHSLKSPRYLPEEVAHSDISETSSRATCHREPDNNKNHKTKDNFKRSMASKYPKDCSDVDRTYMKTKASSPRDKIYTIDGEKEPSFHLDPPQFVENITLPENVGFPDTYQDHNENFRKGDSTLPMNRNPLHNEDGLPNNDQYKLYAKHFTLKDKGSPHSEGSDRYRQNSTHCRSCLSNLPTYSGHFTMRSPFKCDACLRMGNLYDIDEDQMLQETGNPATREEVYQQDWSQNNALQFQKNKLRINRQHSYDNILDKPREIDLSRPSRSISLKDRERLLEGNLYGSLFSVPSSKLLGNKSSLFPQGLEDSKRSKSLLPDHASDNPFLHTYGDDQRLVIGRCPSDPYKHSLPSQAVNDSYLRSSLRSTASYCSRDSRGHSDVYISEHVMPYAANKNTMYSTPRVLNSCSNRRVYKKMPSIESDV
structure (smiles),measurement,setting,value
"CS(=O)(=O)Nc1ccc(OCCN2CC=C(c3ccc(F)cc3)CC2)cc1 [G, N-[4-[2-[4-(4-Fluoro-phenyl)-3,6-dihydro-2H-pyridin-1-yl]-ethoxy]-phenyl]-methanesulfonamide]",IC50,NMDAR1C--NMDAR2B,0.8 µM
same,IC50,NMDAR1C--NMDAR2A,> 30 µM
same,IC50,[1]; [2],0.236 µM
same,IC50,[1]; [3],24 µM
"CCOC(=O)Nc1ccc(OCC(O)CN2CC=C(c3ccc(F)cc3)CC2)cc1 (stereo not drawn) [D, [4-[3-[4-(4-Fluoro-phenyl)-3,6-dihydro-2H-pyridin-1-yl]-2-hydroxy-propoxy]-phenyl]-carbamic acid ethyl ester]",IC50,NMDAR1C--NMDAR2B,0.63 µM
same,IC50,NMDAR1C--NMDAR2A,> 20 µM
same,IC50,[1]; [2],0.136 µM
same,IC50,[1]; [3],320 µM
CC(=O)Nc1ccc(OCC(O)CN2CC=C(c3ccccc3)CC2)cc1 (stereo not drawn) [I],IC50,[1]; [2],0.41 µM
same,IC50,[1]; [3],110 µM
"NC(=O)Nc1ccc(OCC(O)CN2CC=C(c3ccc(F)cc3)CC2)cc1 (stereo not drawn) [A, [4-[3-[4-(4-Fluoro-phenyl)-3,6-dihydro-2H-pyridin-1-yl]-2-hydroxy-propoxy]-phenyl]-urea]",IC50,[1]; [2],0.02 µM
same,IC50,[1]; [3],55 µM
"CS(=O)(=O)Nc1ccc(OCC(O)CN2CC=C(c3ccc(F)cc3)CC2)cc1 (stereo not drawn) [C, N-[4-[3-[4-(4-Fluoro-phenyl)-3,6-dihydro-2H-pyridin-1-yl]-2-hydroxy-propoxy]-phenyl]-methanesulfonamide]",IC50,[1]; [2],0.02 µM
same,IC50,[1]; [3],69 µM
OC(COc1ccc2c(c1)CCC2)CN1CC=C(c2ccc(F)cc2)CC1 (stereo not drawn) [compound N],IC50,[1]; [2],1.96 µM
same,IC50,[1]; [3],258 µM
CCC(=O)Nc1ccc(OCCCN2CC=C(c3ccc(F)cc3)CC2)cc1 [L],IC50,[1]; [2],1 µM
same,IC50,[1]; [3],110 µM
"CC(=O)Nc1ccc(OCCCN2CC=C(c3ccc(Cl)cc3)CC2)cc1 [E, N-[4-[3-[4-(4-chloro-phenyl)-3,6-dihydro-2H-pyridin-1-yl]-propoxy]-phenyl]-acetamide]",IC50,[1]; [2],0.2 µM
same,IC50,[1]; [3],88 µM
"CS(=O)(=O)Nc1ccc(OCCCN2CC=C(c3ccc(F)cc3)CC2)cc1 [B, N-[4-[3-[4-(4-Fluoro-phenyl)-3,6-dihydro-2H-pyridin-1-yl]-propoxy]-phenyl]-methanesulfonamide hydrochloride (1:1)]",IC50,[1]; [2],0.02 µM
same,IC50,[1]; [3],75 µM
CC(=O)c1ccc(OCCCN2CC=C(c3ccccc3)CC2)cc1 [O],IC50,[1]; [2],7.5 µM
same,IC50,[1]; [3],298 µM
COc1ccc(C2=CCN(CCCOc3ccc(NC(C)=O)cc3)CC2)cc1 [K],IC50,[1]; [2],0.91 µM
same,IC50,[1]; [3],76 µM
OC(COc1ccccc1)CN1CC=C(c2ccccc2)CC1 (stereo not drawn) [M],IC50,[1]; [2],1.75 µM
same,IC50,[1]; [3],102 µM
CC(=O)Nc1ccc(OCCCN2CC=C(c3ccc(F)cc3)CC2)cc1 [F],IC50,[1]; [2],0.2 µM
same,IC50,[1]; [3],85 µM
NC(=O)c1ccc(OCC(O)CN2CC=C(c3ccc(F)cc3)CC2)cc1 (stereo not drawn) [H],IC50,NMDAR1C--NMDAR2B,0.71 µM
same,IC50,NMDAR1C--NMDAR2A,> 30 µM
same,IC50,[1]; [2],0.33 µM
same,IC50,[1]; [3],40 µM
Nc1ccc(OCCCN2CC=C(c3ccc(F)cc3)CC2)cc1 [J],IC50,[1]; [2],0.78 µM
same,IC50,[1]; [3],44 µM
